Measured values published in paper PMC4225485, “The PHD1 finger of KDM5B recognizes unmodified H3K4 during the demethylation of histone H3K4me2/3 by KDM5B” (Protein & Cell, 2014).

Key:
KDM5B-PHD1-L324A = biological target: T1, KDM5B-PHD1-L324A (Homo sapiens, UniProt Q9UGL1, L324A); test: ITC binding, PHD1 L324A mutant; settings: Table S1, pH 7.5, 25°C
T1 construct: PHDKDM5B (residues 306–360 aa); GST (N, cleaved yes); made in house
Method: (§1) A similar PHDKDM5B construct was used for the sample required in the NMR experiments. ^13C- and ^15N-labeled PHDKDM5B were prepared in M9 medium. Site-directed mutagenesis was performed using a QuikChange site-directed mutagenesis kit (Stratagene Inc. La Jolla, California, U.S.A). All of the DNA constructs were sequenced, and the molecular weights of the recombinant proteins were verified by mass spectrometry (MALDI).
(§2) To investigate whether the PHD1KDM5B finger and its mutants interact with unmodified or methylated H3K4 or H3K4mutants, the binding affinities of PHD1KDM5B or its mutants to H3 peptides were studied. An ITC-200 microcalorimeter (GE Healthcare) was used with a buffer containing 20 mmol/L Tris, 150 mmol/L NaCl, and 1% Triton X-100, pH 7.5 at 25°C. The reference titration of small molecules in the buffer was subtracted from the experimental data, and the data were fitted using the Origin 7.0 (OriginLab Corporation) software.

KDM5B-PHD1-S333A = biological target: T2, KDM5B-PHD1-S333A (Homo sapiens, UniProt Q9UGL1, S333A); test: ITC binding, PHD1 S333A mutant; settings: Table S1, pH 7.5, 25°C
T2 construct: PHDKDM5B (residues 306–360 aa); GST (N, cleaved yes); made in house
T2 sequence (Q9UGL1 306-360 S333A): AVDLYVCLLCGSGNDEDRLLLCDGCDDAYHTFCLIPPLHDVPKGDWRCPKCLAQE
Method: as §1, §2

KDM5B-PHD1-D322A = biological target: T3, KDM5B-PHD1-D322A (Homo sapiens, UniProt Q9UGL1, D322A); test: ITC binding, PHD1 D322A mutant; settings: Table S1, pH 7.5, 25°C
T3 construct: PHDKDM5B (residues 306–360 aa); GST (N, cleaved yes); made in house
T3 sequence (Q9UGL1 306-360 D322A): as the sequence (Q9UGL1 306-360 S333A) above, with D17A, A28S counted along it
Method: as §1, §2

KDM5B-PHD1-L325A = biological target: T4, KDM5B-PHD1-L325A (Homo sapiens, UniProt Q9UGL1, L325A); test: ITC binding, PHD1 L325A mutant
T4 construct: PHDKDM5B (residues 306–360 aa); GST (N, cleaved yes); made in house
T4 sequence (Q9UGL1 306-360 L325A): as the sequence (Q9UGL1 306-360 S333A) above, with L20A, A28S counted along it
Method: as §1, §2

KDM5B-PHD1-Y334A = biological target: T5, KDM5B-PHD1-Y334A (Homo sapiens, UniProt Q9UGL1, Y334A); test: ITC binding, PHD1 Y334A mutant; settings: Table S1, pH 7.5, 25°C
T5 construct: PHDKDM5B (residues 306–360 aa); GST (N, cleaved yes); made in house
T5 sequence (Q9UGL1 306-360 Y334A): as the sequence (Q9UGL1 306-360 S333A) above, with A28S, Y29A counted along it
Method: as §1, §2

KDM5B-PHD1-V311A = biological target: T6, KDM5B-PHD1-V311A (Homo sapiens, UniProt Q9UGL1, V311A); test: ITC binding, PHD1 V311A mutant; settings: Table S1, pH 7.5, 25°C
T6 construct: PHDKDM5B (residues 306–360 aa); GST (N, cleaved yes); made in house
T6 sequence (Q9UGL1 306-360 V311A): as the sequence (Q9UGL1 306-360 S333A) above, with V6A, A28S counted along it
Method: as §1, §2

KDM5B-PHD1-L309A = biological target: T7, KDM5B-PHD1-L309A (Homo sapiens, UniProt Q9UGL1, L309A); test: ITC binding, PHD1 L309A mutant; settings: Table S1, pH 7.5, 25°C
T7 construct: PHDKDM5B (residues 306–360 aa); GST (N, cleaved yes); made in house
T7 sequence (Q9UGL1 306-360 L309A): as the sequence (Q9UGL1 306-360 S333A) above, with L4A, A28S counted along it
Method: as §1, §2

KDM5B-PHD1-D345A = biological target: T8, KDM5B-PHD1-D345A (Homo sapiens, UniProt Q9UGL1, D345A); test: ITC binding, PHD1 D345A mutant; settings: Table S1, pH 7.5, 25°C
T8 construct: PHDKDM5B (residues 306–360 aa); GST (N, cleaved yes); made in house
T8 sequence (Q9UGL1 306-360 D345A): as the sequence (Q9UGL1 306-360 S333A) above, with A28S, D40A counted along it
Method: as §1, §2

KDM5B-PHD1-W351A = biological target: T9, KDM5B-PHD1-W351A (Homo sapiens, UniProt Q9UGL1, W351A); test: ITC binding, PHD1 W351A mutant
T9 construct: PHDKDM5B (residues 306–360 aa); GST (N, cleaved yes); made in house
T9 sequence (Q9UGL1 306-360 W351A): as the sequence (Q9UGL1 306-360 S333A) above, with A28S, W46A counted along it
Method: as §1, §2

KDM5B-PHD1-D332A = biological target: T10, KDM5B-PHD1-D332A (Homo sapiens, UniProt Q9UGL1, D332A); test: ITC binding, PHD1 D332A mutant; settings: Table S1, pH 7.5, 25°C
T10 construct: PHDKDM5B (residues 306–360 aa); GST (N, cleaved yes); made in house
T10 sequence (Q9UGL1 306-360 D332A): as the sequence (Q9UGL1 306-360 S333A) above, with D27A, A28S counted along it
Method: as §1, §2

T1 sequence (Q9UGL1 306-360 L324A): as the sequence (Q9UGL1 306-360 S333A) above, with L19A, A28S counted along it

C[C@H](N)C(=O)N[C@@H](CCCNC(=N)N)C(=O)N[C@H](C(=O)N[C@@H](CCCCN)C(=O)N[C@@H](CCC(N)=O)C(=O)N[C@H](C(=O)N[C@@H](C)C(=O)N[C@@H](CCCNC(=N)N)C(=O)N[C@@H](CCCCN)C(=O)N[C@@H](CO)C(=O)O)[C@@H](C)O)[C@@H](C)O [H3K4me0]
Kd (KDM5B-PHD1-L324A): 15.3 ± 0.7 µM
Kd (KDM5B-PHD1-S333A): 12.9 ± 0.5 µM
Kd (KDM5B-PHD1-D322A): 10.7 ± 0.5 µM
binding affinity (KDM5B-PHD1-L325A): non-detectable
Kd (KDM5B-PHD1-Y334A): 12.6 ± 0.4 µM
Kd (KDM5B-PHD1-V311A): 8.2 ± 0.3 µM
Kd (KDM5B-PHD1-L309A): 8.3 ± 0.5 µM
Kd (KDM5B-PHD1-D345A): 6.7 ± 0.3 µM
binding affinity (KDM5B-PHD1-W351A): non-detectable
Kd (KDM5B-PHD1-D332A): 11.3 ± 0.5 µM
